Measurements: patent US11401243B2, “Quinoline derived small molecule inhibitors of nicotinamide N-methyltransferase (NNMT) and uses thereof” (priority 2017, dated 2022)
Entries after “also recorded” stand apart in the source; their conditions may differ.

Key:
[1] = target: recombinant human DNMT1 enzyme (Homo sapiens, UniProt P26358); test: DNMT1 activity assay (radiometric); type: biochemical
[2] = target: T1, recombinant human SIRT-1 (NAD+-dependent) enzyme (Homo sapiens, UniProt Q96EB6); test: SIRT-1 activity assay (fluorometric); type: biochemical
T1 construct: Reaction Biology Corporation (ran the assay)
T1 sequence (Q96EB6 1-747): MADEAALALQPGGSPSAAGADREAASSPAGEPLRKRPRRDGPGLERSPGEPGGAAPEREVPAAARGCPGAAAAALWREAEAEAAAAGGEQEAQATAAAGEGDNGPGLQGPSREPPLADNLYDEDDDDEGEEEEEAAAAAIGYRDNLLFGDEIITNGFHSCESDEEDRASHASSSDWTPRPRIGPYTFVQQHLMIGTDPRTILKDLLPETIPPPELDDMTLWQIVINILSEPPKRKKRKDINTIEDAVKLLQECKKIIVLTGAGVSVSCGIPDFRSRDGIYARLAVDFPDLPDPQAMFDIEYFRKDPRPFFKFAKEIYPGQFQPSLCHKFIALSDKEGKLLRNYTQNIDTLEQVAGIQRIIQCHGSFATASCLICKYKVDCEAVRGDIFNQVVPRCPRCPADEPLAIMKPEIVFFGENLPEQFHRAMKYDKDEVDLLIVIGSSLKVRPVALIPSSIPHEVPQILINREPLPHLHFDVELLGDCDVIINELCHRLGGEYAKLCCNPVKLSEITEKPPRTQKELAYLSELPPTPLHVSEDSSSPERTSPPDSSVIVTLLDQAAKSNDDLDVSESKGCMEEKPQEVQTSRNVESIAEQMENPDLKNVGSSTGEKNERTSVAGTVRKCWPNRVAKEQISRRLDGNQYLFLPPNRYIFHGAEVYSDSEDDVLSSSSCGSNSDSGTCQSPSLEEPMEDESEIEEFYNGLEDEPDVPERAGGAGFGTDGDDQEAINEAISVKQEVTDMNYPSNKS

[3] = test system: differentiating 3T3-L1 cells; test: Adipocyte differentiation / lipogenesis quantitated with oil red O staining; type: cell-based; details: for reduction of lipogenesis compared to control untreated adipocytes: oil red O
Description: On day 9 post-differentiation, cells were subjected to quantitative oil red O (Thermo Fisher Scientific; Waltham, Mass., USA) staining as adapted and modified from published protocols. Briefly, cells were washed twice with PBS, fixed with 10% formalin for 30 min at room temperature, and stained with oil red O working solution (˜0.2% oil red O in 99% isopropanol) for 30 min. Cells were then washed five times or with sterile water until unincorporated oil red O stain was completely removed. Images of oil red O staining in control and inhibitor-treated cells were digitally photographed using a light microscope (Olympus BX41; Tokyo, Japan). After image capture, 2-propanol (3.5 mL) was added to each dish for 10 min to dissolve the oil red O stain and absorbance was quantified in a plate reader set at 492 nm wavelength. To ensure the absorbance from oil red O staining was within the linear detection range of the plate reader, a calibration curve was established for oil red O staining in adipocytes using a previously described protocol.

[4] = Parallel artificial membrane permeability assay (PAMPA); type: in vitro ADME
Description: Samples were tested in triplicates in three separate experiments.

[5] = test system: NNMT activity in 3T3-L1 pre-adipocytes and differentiated adipocytes; test: Quantitative measurement of NNMT reaction product 1-MNA in cultured cells (LC/MS/MS); type: cell-based; details: for intracellular levels of 1-MNA: 30 μM
Description: Differentiation of 3T3-L1 pre-adipocytes. […] Briefly, standard culture media was supplemented with scheduled addition of adipogenic agents [3-isobutyl-1methyl xanthine (IBMX), Sigma Aldrich; MO, USA), dexamethasone (Sigma Aldrich; MO, USA), insulin (Gibco Life Technologies Inc.; Grand Island, N.Y., USA)] over 10 days to promote differentiation of 3T3-L1 fibroblasts into adipocytes; a combination of 1 mM IBMX, 1 μM dexamethasone, and 10 μg/ml of insulin in media were added to fully confluent 3T3-L1 fibroblasts for three days (days 0-3) to initiate differentiation. At day 3, the media was replaced with culture media supplemented with insulin (10 μg/ml). After day 6, cells were maintained in culture media until described experiments were begun (days 8-10).
Cellular 1-MNA concentrations were determined using an ultra-sensitive high-resolution AB Sciex 6500 Q-trap mass spectrometer coupled to an Agilent 1260 ultra-high pressure liquid chromatography (LC/MS/MS) system. Using multiple reaction monitoring (MRM) positive ion mode, the 1-MNA NNMT reaction product was quantified from peak area ratios using AB Sciex Analyst and MultiQuant 2.1 software and the parent precursor and Q3 masses set to m/z 137.1 and 94.1, respectively. Fragment ions at m/z of 92.1 and 77.9 were additionally used for the detection and confirmation of 1-MNA, respectively. […]. To determine the effect of NNMT inhibitor on NNMT activity in the pre-adipocytes and differentiated adipocytes (8×10^4 cells/well seeded prior to beginning differentiation), cells were treated with 30 μM inhibitor for 24 h. Similarly, to compare the relative effects of multiple NNMT inhibitors on NNMT activity in cultured adipocytes, differentiated adipocytes in 6-well plates were treated with 10 μM test compound for 24 h. Following treatment, media was replaced with 80% (v/v) methanol (cooled to −80° C.) containing 500 nmol 6-chloronicotinamide (6-CN) as an internal standard (IS) to extract cellular metabolites. Adherent cells were scrapped, then centrifuged at 4° C. and 13000 g for 15 min, and the resulting supernatants processed using established protocols. […]. Data were subsequently normalized to the IS peak area and transformed as % control values for cross-sample comparisons. […] Choice of inhibitor concentrations and time period was chosen based on the results from the MTT studies.

[6] = test system: 3T3-L1 pre-adipocytes cells; test: MTT cell viability assay; type: cell-based
Description: Cells were treated for 24 h with 0.1-600 μM NNMT inhibitors in cell culture media. A 24 h time point was chosen based on a previous report of using this time period for transfecting or treating 3T3-L1 cells with NNMT anti-sense oligonucleotides or a small molecule NNMT product inhibitor (1-MNA), respectively, for phenotypic measures. MTT (3-(4,5-dimethylthiazol-2-yl)-2,5-diphenyltetrazolium bromide) (ATCC; Manassas, Va., USA) was added to each well and assayed according to the manufacturer's instructions. Absorbance corresponding to the amount of formazan dye produced by treated cells was normalized to that produced by control (untreated) cells to calculate % viable cells in the treated samples.

[7] = target: recombinant human NAMPT enzyme (Homo sapiens, UniProt P43490); test: NAMPT activity assay (fluorometric); type: biochemical
Sequence of recombinant human NAMPT enzyme (P43490 whole entry): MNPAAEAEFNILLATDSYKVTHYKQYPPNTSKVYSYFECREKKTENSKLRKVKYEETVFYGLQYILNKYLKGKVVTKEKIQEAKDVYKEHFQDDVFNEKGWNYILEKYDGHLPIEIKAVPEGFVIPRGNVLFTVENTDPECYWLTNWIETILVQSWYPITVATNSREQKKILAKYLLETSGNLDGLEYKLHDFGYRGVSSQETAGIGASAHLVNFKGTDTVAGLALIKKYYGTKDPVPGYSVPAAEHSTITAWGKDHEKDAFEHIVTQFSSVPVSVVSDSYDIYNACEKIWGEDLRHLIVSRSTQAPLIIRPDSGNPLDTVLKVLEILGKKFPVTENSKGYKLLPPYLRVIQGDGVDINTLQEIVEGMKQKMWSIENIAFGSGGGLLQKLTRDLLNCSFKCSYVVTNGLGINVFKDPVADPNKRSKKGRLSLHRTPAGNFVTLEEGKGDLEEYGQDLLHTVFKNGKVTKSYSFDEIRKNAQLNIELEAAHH

Sequence of recombinant human DNMT1 enzyme (P26358 whole entry): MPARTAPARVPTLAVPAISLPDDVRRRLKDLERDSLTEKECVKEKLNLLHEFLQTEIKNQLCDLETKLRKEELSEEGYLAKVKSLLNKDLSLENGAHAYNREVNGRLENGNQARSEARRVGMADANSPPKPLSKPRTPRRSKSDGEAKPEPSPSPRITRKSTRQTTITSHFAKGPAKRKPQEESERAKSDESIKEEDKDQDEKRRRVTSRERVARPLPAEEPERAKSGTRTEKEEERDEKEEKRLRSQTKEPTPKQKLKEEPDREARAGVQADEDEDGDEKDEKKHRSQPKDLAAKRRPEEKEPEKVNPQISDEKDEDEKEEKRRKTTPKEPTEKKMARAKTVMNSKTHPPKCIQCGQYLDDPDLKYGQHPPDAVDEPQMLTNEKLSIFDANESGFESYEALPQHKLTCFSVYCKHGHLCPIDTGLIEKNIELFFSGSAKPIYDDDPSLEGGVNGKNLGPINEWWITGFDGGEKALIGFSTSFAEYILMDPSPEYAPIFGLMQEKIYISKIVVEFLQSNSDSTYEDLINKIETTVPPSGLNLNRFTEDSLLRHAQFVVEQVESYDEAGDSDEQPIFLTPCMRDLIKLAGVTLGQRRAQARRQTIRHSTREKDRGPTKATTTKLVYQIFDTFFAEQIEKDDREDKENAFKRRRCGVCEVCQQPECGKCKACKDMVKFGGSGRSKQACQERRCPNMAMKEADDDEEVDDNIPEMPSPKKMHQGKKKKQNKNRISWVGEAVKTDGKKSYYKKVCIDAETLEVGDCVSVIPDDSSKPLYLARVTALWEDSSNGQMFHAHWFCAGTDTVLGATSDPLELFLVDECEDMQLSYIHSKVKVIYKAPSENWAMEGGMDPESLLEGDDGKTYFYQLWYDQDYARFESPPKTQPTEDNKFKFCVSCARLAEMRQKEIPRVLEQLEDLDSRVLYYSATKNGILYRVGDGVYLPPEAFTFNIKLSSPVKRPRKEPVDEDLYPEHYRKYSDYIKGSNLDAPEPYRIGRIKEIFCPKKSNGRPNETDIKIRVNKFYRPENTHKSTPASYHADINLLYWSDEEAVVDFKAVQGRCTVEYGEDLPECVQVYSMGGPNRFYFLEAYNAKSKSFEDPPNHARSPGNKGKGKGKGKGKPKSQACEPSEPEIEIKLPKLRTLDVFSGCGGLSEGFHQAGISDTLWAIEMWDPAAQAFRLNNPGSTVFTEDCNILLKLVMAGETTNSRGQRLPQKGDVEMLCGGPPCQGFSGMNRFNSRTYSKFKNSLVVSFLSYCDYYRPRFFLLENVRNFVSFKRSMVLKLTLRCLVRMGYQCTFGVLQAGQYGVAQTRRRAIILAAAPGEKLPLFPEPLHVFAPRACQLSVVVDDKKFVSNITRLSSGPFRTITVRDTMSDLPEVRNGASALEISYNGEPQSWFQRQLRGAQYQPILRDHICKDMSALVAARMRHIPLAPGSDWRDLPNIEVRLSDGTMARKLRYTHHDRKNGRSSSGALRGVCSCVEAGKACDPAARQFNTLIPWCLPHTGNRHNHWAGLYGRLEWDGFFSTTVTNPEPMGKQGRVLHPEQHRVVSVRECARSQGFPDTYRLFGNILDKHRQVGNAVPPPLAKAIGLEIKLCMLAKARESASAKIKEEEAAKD

Which “inhibition of DNMT1 (in words)” value ([1]; 10 nM to 200 μM (1,8-diMQ) or 600 μM (5-amino-1MQ)) does the source give for C[n+]1cccc2c(N)cccc21 [1j, 5-amino-1-methylquinolin-1-ium iodide] here?
Its value is “did not inhibit”.

And the IC50 ([1]; NI: no inhibition, read-out: IC50, DNA (cytosine-5)-methyltransferase 1)?
The IC50 was > 200 µM.

What about the “inhibition of SIRT1 (in words)” value ([2]; 10 nM-300 μM) of the same molecule?
The value was “did not inhibit”.

What about the “SIRT1 activity (in words)” value ([2]; 600 μM) of the same molecule?
The value was “minor reduction in SIRT1 activity”.

And the “reduction of lipogenesis compared to control untreated adipocytes” value ([3]; 30 μM)?
The value was 50%.

What about the “reduction of lipogenesis compared to control untreated adipocytes” value ([3]; 60 μM) of the same molecule?
Its value is 70%.

And the “lipid accumulation in differentiating pre-adipocytes (in words)” value ([3]; 15, 30, 60 μM)?
The value was “concentration-dependent inhibition of lipid accumulation”.

What about the Papp at 4 h, 400 μM ([4]; 400 μM in PBS, 4 h, room temperature, read-out: Flux) of the same molecule?
Its Papp at 4 h, 400 μM is 3.01 ×10⁻⁶ cm/s.

And the “Permeability Classification (passive transport)” value ([4]; BCS classification, listed as 5-amino-1MQ)?
The value was “high passive and active transport; also recorded: High permeability”.

And the “1-MNA levels in differentiated adipocytes relative to control” value ([5]; 10 μM, 24 h)?
Its value is “significantly decreased”.

What about the EC50 ([5]; Mus musculus, 3T3-L1, 24 h, 0.3-60 μM, 3-parameter sigmoidal fit, read-out: EC50 for inhibition of NNMT (intracellular 1-MNA) in fully differentiated adipocytes) of the same molecule?
Its EC50 is 2.3 µM.

What about the “intracellular levels of 1-MNA” value ([5]; adipocytes, 24 h) of the same molecule?
The value was “significant reduction”.

And the “relative intracellular 1-MNA levels, % of level in untreated adipocytes” value ([5]; inhibitor concentrations 10-60 μM)?
Its value is ~40%.

What about the “intracellular levels of 1-MNA” value ([5]; pre-adipocytes, 24 h) of the same molecule?
Its value is “significant reduction”.

And the cell viability ([6]; 3T3-L1 pre-adipocytes, 10 μM, 24 h)?
The cell viability was “did not impact cell viability”.

What about the cytotoxicity ([6]; 3T3-L1 pre-adipocytes, 600 μM (highest concentration tested), 24 h) of the same molecule?
Its cytotoxicity is ~40%.

And the “cytotoxicity relative to untreated cells” value ([6]; 3T3-L1 pre-adipocytes, 100-300 μM, 24 h)?
Its value is “modest cytotoxicity”.

And the “3T3-L1 cell viability compared to untreated” value ([6]; highest tested concentration (0.1-60 μM range))?
The value was “only slightly reduced”.

What about the IC50 ([7]; concentrations above 100 μM could not be tested (assay interference), read-out: IC50, Nicotinamide phosphoribosyl transferase) of the same molecule?
The IC50 was > 100 µM.

And the “inhibition of NAMPT (in words)” value ([7]; up to 100 μM)?
The value was “did not inhibit”.
